# Measured values taken from PubChem BioAssay AID1918946 (Molecular Pharmacology Branch, DTP, NCI, 2023).
# Tested on: 885512-296-R-J2-PDC complex spheroid viability
# Assay: Anticancer human tumor 885512-296-R-J2-PDC patient-derived breast carcinoma cell line growth inhibition
# Details: for IC50: curve of first compound; for viability, T/C: stronger effect = lower value
# Method in brief: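 Multicellular complex spheroids of tumor cells with human endothelial cells (HUVEC) and mesenchymal stem cells; the LSD1 inhibitor iadademstat was combined with standard-of-care or investigational agents. Top concentration at or near clinical Cmax, half-log dilutions; final DMSO ≤0.25%.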
# [1] = second compound 0.1 µM, first compound 0.00316 µM
# [2] = second compound 0.1 µM, first compound 0.01 µM
# [3] = second compound 0.1 µM, first compound 0.0316 µM
# [4] = second compound 0.1 µM, first compound 0.1 µM
# [5] = second compound 0.1 µM, first compound 0.316 µM
# [6] = second compound 0.1 µM, first compound 1 µM
# [7] = second compound 0.316 µM, first compound 0.00316 µM
# [8] = second compound 0.316 µM, first compound 0.01 µM
# [9] = second compound 0.316 µM, first compound 0.0316 µM
# [10] = second compound 0.316 µM, first compound 0.1 µM
# [11] = second compound 0.316 µM, first compound 0.316 µM
# [12] = second compound 0.316 µM, first compound 1 µM
# [13] = second compound 1 µM, first compound 0.00316 µM
# [14] = second compound 1 µM, first compound 0.01 µM
# [15] = second compound 1 µM, first compound 0.0316 µM
# [16] = second compound 1 µM, first compound 0.1 µM
# [17] = second compound 1 µM, first compound 0.316 µM
# [18] = second compound 1 µM, first compound 1 µM
# [19] = second compound 3.16 µM, first compound 0.00316 µM
# [20] = second compound 3.16 µM, first compound 0.01 µM
# [21] = second compound 3.16 µM, first compound 0.0316 µM
# [22] = second compound 3.16 µM, first compound 0.1 µM
# [23] = second compound 3.16 µM, first compound 0.316 µM
# [24] = second compound 3.16 µM, first compound 1 µM
# [25] = second compound 10 µM, first compound 0.00316 µM
# [26] = second compound 10 µM, first compound 0.01 µM
# [27] = second compound 10 µM, first compound 0.0316 µM
# [28] = second compound 10 µM, first compound 0.1 µM
# [29] = second compound 10 µM, first compound 0.316 µM
# [30] = second compound 10 µM, first compound 1 µM
# 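Also: spheroids exposed to agents for 7 days before viability read.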
compound,measurement,setting,value
O=C(C=Cn1cnc(-c2cc(C(F)(F)F)cc(C(F)(F)F)c2)n1)NNc1cnccn1 + NC1CC1c1ccc(-c2cccc(O)c2)cc1,IC50,second compound 0.1 µM,< 3.16 nM
same,IC50,second compound 0.316 µM,< 3.16 nM
same,IC50,second compound 1 µM,< 3.16 nM
same,IC50,second compound 3.16 µM,< 3.16 nM
same,IC50,second compound 10 µM,< 3.16 nM
same,"viability, T/C",[1],22.8%
same,"viability, T/C",[2],11.1%
same,"viability, T/C",[3],1.78%
same,"viability, T/C",[4],0.68%
same,"viability, T/C",[5],0.55%
same,"viability, T/C",[6],0.47%
same,"viability, T/C",[7],17.4%
same,"viability, T/C",[8],11.5%
same,"viability, T/C",[9],1.98%
same,"viability, T/C",[10],0.67%
same,"viability, T/C",[11],0.5%
same,"viability, T/C",[12],0.4%
same,"viability, T/C",[13],19%
same,"viability, T/C",[14],10.3%
same,"viability, T/C",[15],2.51%
same,"viability, T/C",[16],0.72%
same,"viability, T/C",[17],0.52%
same,"viability, T/C",[18],0.58%
same,"viability, T/C",[19],13.6%
same,"viability, T/C",[20],10.3%
same,"viability, T/C",[21],2.71%
same,"viability, T/C",[22],0.8%
same,"viability, T/C",[23],0.52%
same,"viability, T/C",[24],0.63%
same,"viability, T/C",[25],14.8%
same,"viability, T/C",[26],8.29%
same,"viability, T/C",[27],2.21%
same,"viability, T/C",[28],0.82%
same,"viability, T/C",[29],0.71%
same,"viability, T/C",[30],0.78%
COc1cc(C2c3cc4c(cc3C(OC3OC5COC(C)OC5C(O)C3O)C3COC(=O)C23)OCO4)cc(OC)c1O (stereo not given) + NC1CCC(NC2CC2c2ccccc2)CC1,IC50,second compound 0.1 µM,67.8 nM
same,IC50,second compound 0.316 µM,60.8 nM
same,IC50,second compound 1 µM,66.8 nM
same,IC50,second compound 3.16 µM,77.6 nM
same,IC50,second compound 10 µM,52.8 nM
same,"viability, T/C","second compound 0.1 µM, first compound 0.00949 µM",118%
same,"viability, T/C","second compound 0.1 µM, first compound 0.03 µM",95.8%
same,"viability, T/C","second compound 0.1 µM, first compound 0.0949 µM",31.2%
same,"viability, T/C","second compound 0.1 µM, first compound 0.3 µM",11.3%
same,"viability, T/C","second compound 0.1 µM, first compound 0.949 µM",10.2%
same,"viability, T/C","second compound 0.1 µM, first compound 3 µM",11.3%
same,"viability, T/C","second compound 0.316 µM, first compound 0.00949 µM",108%
same,"viability, T/C","second compound 0.316 µM, first compound 0.03 µM",90.7%
same,"viability, T/C","second compound 0.316 µM, first compound 0.0949 µM",24.3%
same,"viability, T/C","second compound 0.316 µM, first compound 0.3 µM",11.8%
same,"viability, T/C","second compound 0.316 µM, first compound 0.949 µM",9.27%
same,"viability, T/C","second compound 0.316 µM, first compound 3 µM",8.79%
same,"viability, T/C","second compound 1 µM, first compound 0.00949 µM",104%
same,"viability, T/C","second compound 1 µM, first compound 0.03 µM",86.4%
same,"viability, T/C","second compound 1 µM, first compound 0.0949 µM",33.4%
same,"viability, T/C","second compound 1 µM, first compound 0.3 µM",13%
same,"viability, T/C","second compound 1 µM, first compound 0.949 µM",6.51%
same,"viability, T/C","second compound 1 µM, first compound 3 µM",4.74%
same,"viability, T/C","second compound 3.16 µM, first compound 0.00949 µM",98.9%
same,"viability, T/C","second compound 3.16 µM, first compound 0.03 µM",105%
same,"viability, T/C","second compound 3.16 µM, first compound 0.0949 µM",39%
same,"viability, T/C","second compound 3.16 µM, first compound 0.3 µM",10.7%
same,"viability, T/C","second compound 3.16 µM, first compound 0.949 µM",6.97%
same,"viability, T/C","second compound 3.16 µM, first compound 3 µM",9.62%
same,"viability, T/C","second compound 10 µM, first compound 0.00949 µM",90.8%
same,"viability, T/C","second compound 10 µM, first compound 0.03 µM",64.6%
same,"viability, T/C","second compound 10 µM, first compound 0.0949 µM",35%
same,"viability, T/C","second compound 10 µM, first compound 0.3 µM",14.2%
same,"viability, T/C","second compound 10 µM, first compound 0.949 µM",5.81%
same,"viability, T/C","second compound 10 µM, first compound 3 µM",4.68%
Nc1ncn(C2CC(O)C(CO)O2)c(=O)n1 (stereo not given) + NC1CCC(NC2CC2c2ccccc2)CC1,IC50,second compound 0.1 µM,30.8 nM
same,IC50,second compound 0.316 µM,29.9 nM
same,IC50,second compound 1 µM,28.3 nM
same,IC50,second compound 3.16 µM,27.1 nM
same,IC50,second compound 10 µM,19.8 nM
same,"viability, T/C",[1],91.3%
same,"viability, T/C",[2],91.5%
same,"viability, T/C",[3],46.9%
same,"viability, T/C",[4],25.2%
same,"viability, T/C",[5],12.7%
same,"viability, T/C",[6],13.6%
same,"viability, T/C",[7],105%
same,"viability, T/C",[8],75.5%
same,"viability, T/C",[9],53%
same,"viability, T/C",[10],24.6%
same,"viability, T/C",[11],14.8%
same,"viability, T/C",[12],15.4%
same,"viability, T/C",[13],101%
same,"viability, T/C",[14],74.1%
same,"viability, T/C",[15],47%
same,"viability, T/C",[16],30.8%
same,"viability, T/C",[17],14.5%
same,"viability, T/C",[18],16.1%
same,"viability, T/C",[19],80.1%
same,"viability, T/C",[20],72.6%
same,"viability, T/C",[21],44.4%
same,"viability, T/C",[22],28.9%
same,"viability, T/C",[23],19.8%
same,"viability, T/C",[24],16.1%
same,"viability, T/C",[25],74.8%
same,"viability, T/C",[26],59%
same,"viability, T/C",[27],45.4%
same,"viability, T/C",[28],21.4%
same,"viability, T/C",[29],15.6%
same,"viability, T/C",[30],11.5%
